Assay results: patent publication US12568967B2, “Compositions comprising pyridine carboxylate herbicides with synthetic auxin herbicides or auxin transport inhibitors” (priority 2018, dated 2026)
Where “and” joins values, the source holds several entries; their conditions need not be identical. Equal values may be shown once.

Tests used:
[1] = test system: Brassica napus (spring rape, BRSNN); assay: Greenhouse postemergence trial BRSNN; format: in vivo
Procedure: (§1) The plants were grown for 7-36 days (d) in a greenhouse with an approximate 14-hour (h) photo-period which was maintained at about 23° C. during the day and 22° C. during the night. Nutrients and water were added on a regular basis and supplemental lighting was provided with overhead metal halide 1000-Watt lamps as necessary. The plants were employed for testing when they reached the second or third true leaf stage.
(§2) The emulsifiable concentrates also included a safener, cloquintocet-mexyl, at 120 grams active ingredient per liter (g ai/L), unless otherwise noted below.
(§3) Control plants were sprayed in the same manner with the solvent blank. All pyridine carboxylate herbicide (component a) application rates are given as “g ae/ha” and all synthetic auxin herbicide or auxin transport inhibitor (component b) application rates are given as “g ai/ha.”
(§4) The treated plants and control plants were placed in a greenhouse as described above and watered by sub-irrigation to prevent wash-off of the test compounds. After 20-22 d, the condition of the test plants as compared with that of the control plants was determined visually and scored on a scale of 0 to 100 percent where 0 corresponds to no injury and 100 corresponds to complete kill.

[2] = test system: Matricaria discoidea (pineapple weed, MATMT); assay: Greenhouse postemergence trial MATMT; format: in vivo; settings: MATMT; for % visual injury Obs: alone; for % visual injury, Obs: applied alone
[3] = test system: Anthemis arvensis (field chamomile, ANTAR); assay: Greenhouse postemergence trial ANTAR; format: in vivo; settings: ANTAR; for % visual injury Obs: alone; for % visual injury, Obs: applied alone
[4] = test system: Lamium purpureum (purple deadnettle, LAMPU); assay: Greenhouse postemergence trial LAMPU; settings: for % visual injury, Obs: applied alone
Procedure: as §1, §2, §3, §4

[5] = test system: Kochia scoparia (kochia, KCHSC); assay: Greenhouse postemergence trial KCHSC; format: in vivo
[6] = test system: Polygonum convolvulus (wild buckwheat, POLCO); assay: Greenhouse postemergence trial POLCO; format: in vivo
[7] = Lamium purpureum, post-emergence, read-out: % visual injury Obs
[8] = Compound A 10 g/ha, without safener

Compound: N#CCOC(=O)c1nc(-c2ccc3cc[nH]c3c2F)c(F)c(N)c1Cl [Compound A, cyanomethyl 4-amino-3-chloro-5-fluoro-6-(7-fluoro-1H-indol-6-yl)pyridine-2-carboxylate]
- BRSNN % visual injury Obs ([1]; Compound A 10 g/ha (Table 43)): 55%
- BRSNN % visual injury Obs ([1]; Compound A 10 g/ha (Table 44)): 55%
- visual injury, Obs ([2]; Compound A 10 g/ha alone): 5%
- visual injury, Obs ([2]; Compound A 15 g/ha alone): 15%
- % visual injury Obs ([2]; 10 g/ha): 5%
- % visual injury Obs ([2]; 15 g/ha): 15%
- % visual injury, Obs ([2]; 10 g/ha): 5%
- % visual injury, Obs ([2]; 15 g/ha): 15%
- pest or weed control at […] ([2]; Matricaria discoidea, post-emergence, Compound A 7.5 g/ha, read-out: % visual injury Obs): 5%
- pest or weed control at 10 g/ha ([2]; Matricaria discoidea, post-emergence, Compound A 10 g/ha, read-out: % visual injury Obs): 5%
- pest or weed control at 15 g/ha ([2]; Matricaria discoidea, post-emergence, Compound A 15 g/ha, read-out: % visual injury Obs): 15%
- visual injury, Obs ([3]; Compound A 10 g/ha alone): 100%
- visual injury, Obs ([3]; Compound A 15 g/ha alone): 100%
- % visual injury Obs ([3]; 10 g/ha): 100%
- % visual injury Obs ([3]; 15 g/ha): 100%
- % visual injury, Obs ([3]; 10 g/ha): 100%
- % visual injury, Obs ([3]; 15 g/ha): 100%
- pest or weed control at […] ([3]; Anthemis arvensis, post-emergence, Compound A 7.5 g/ha, read-out: % visual injury Obs): 95%
- pest or weed control at 10 g/ha ([3]; Anthemis arvensis, post-emergence, Compound A 10 g/ha, read-out: % visual injury Obs): 100%
- pest or weed control at 15 g/ha ([3]; Anthemis arvensis, post-emergence, Compound A 15 g/ha, read-out: % visual injury Obs): 100%
- visual injury, Obs ([4]; LAMPU, Compound A 10 g/ha alone): 70%
- % visual injury Obs ([4]; LAMPU, Compound A 15 g/ha): 75%
- visual injury, Obs ([4]; LAMPU, Compound A 15 g/ha alone): 75%
- % visual injury (Obs) ([4]; LAMPU, alone 10 g/ha): 90%
- % visual injury Obs ([4]; LAMPU, alone 10 g/ha): 70%
- % visual injury Obs ([4]; LAMPU, alone, 15 g/ha): 75%
- % visual injury, Obs ([4]; LAMPU, 10 g/ha): 70%
- % visual injury, Obs ([4]; LAMPU, 15 g/ha): 75%
- pest or weed control at 10 g/ha [4, 7]: 70%
- pest or weed control at 15 g/ha [4, 7]: 75%
- pest or weed control at […] ([5]; Bassia scoparia, post-emergence, KCHSC, Compound A 7.5 g/ha, read-out: % visual injury Obs): 70%
- pest or weed control at 10 g/ha ([5]; Bassia scoparia, post-emergence, KCHSC, Compound A 10 g/ha, read-out: % visual injury Obs): 75%
- pest or weed control at 15 g/ha ([5]; Bassia scoparia, post-emergence, KCHSC, Compound A 15 g/ha, read-out: % visual injury Obs): 80%
- KCHSC Obs (% visual injury) ([5]; Compound A 10 g/ha): 65% and 55%
- KCHSC % visual injury Obs ([5]; Compound A 10 g/ha (Table 42)): 65%
- KCHSC % visual injury Obs ([5]; Compound A 10 g/ha (Table 43)): 65%
- KCHSC % visual injury Obs ([5]; Compound A 10 g/ha (Table 44)): 65%
- KCHSC Obs (% visual injury) [5, 8]: 88%
- % visual injury Obs ([5]; KCHSC, Compound A 10 g/ha): 75%
- % visual injury, Obs ([5]; KCHSC, Compound A 10 g/ha): 65% and 70% and 88%
- visual injury, Obs ([5]; KCHSC, Compound A 10 g/ha alone): 75%
- visual injury, Obs ([5]; KCHSC, Compound A 15 g/ha alone): 80%
- % visual injury (Obs) ([5]; KCHSC, alone 10 g/ha): 68% and 55% and 70%
- % visual injury Obs ([5]; KCHSC, alone 10 g/ha): 75%
- % visual injury Obs ([5]; KCHSC, alone, 15 g/ha): 80%
- % visual injury, Obs ([5]; KCHSC, applied alone, 10 g/ha): 75% and 70%
- % visual injury, Obs ([5]; KCHSC, applied alone, 15 g/ha): 80%
- POLCO Obs (% visual injury) ([6]; Compound A 10 g/ha): 91% and 70%
- POLCO % visual injury Obs ([6]; Compound A 10 g/ha (Table 42)): 91%
- POLCO % visual injury Obs ([6]; Compound A 10 g/ha (Table 43)): 91%
- POLCO % visual injury Obs ([6]; Compound A 10 g/ha (Table 44)): 91%
- POLCO Obs (% visual injury) [6, 8]: 78%
- pest or weed control at […] ([6]; Fallopia convolvulus, post-emergence, POLCO, Compound A 7.5 g/ha, read-out: % visual injury Obs): 85%
- pest or weed control at 10 g/ha ([6]; Fallopia convolvulus, post-emergence, POLCO, Compound A 10 g/ha, read-out: % visual injury Obs): 90%
- pest or weed control at 15 g/ha ([6]; Fallopia convolvulus, post-emergence, POLCO, Compound A 15 g/ha, read-out: % visual injury Obs): 95%
- % visual injury Obs ([6]; POLCO, Compound A 10 g/ha): 90%
- % visual injury, Obs ([6]; POLCO, Compound A 10 g/ha): 91% and 70% and 78%
- visual injury, Obs ([6]; POLCO, Compound A 10 g/ha alone): 90%
- visual injury, Obs ([6]; POLCO, Compound A 15 g/ha alone): 95%
- % visual injury (Obs) ([6]; POLCO, alone 10 g/ha): 86% and 96% and 70%
- % visual injury Obs ([6]; POLCO, alone 10 g/ha): 90%
- % visual injury Obs ([6]; POLCO, alone, 15 g/ha): 95%
- % visual injury, Obs ([6]; POLCO, applied alone, 10 g/ha): 90% and 43%
- % visual injury, Obs ([6]; POLCO, applied alone, 15 g/ha): 95%
